# Assay results taken from patent US9353090B2, “Heterocyclic carboxylic acids as activators of soluble guanylate cyclase” (Boehringer Ingelheim International GmbH, priority 2014, dated 2016).
# Columns and labels:
# physchem = settings: kinetic from dmso stock
# [1] = biological target: human soluble guanylate cyclase alpha 1 and beta 1 subunits (sGC) (Homo sapiens (Human), UniProt Q02108+Q02153); experiment: sGC cellular activator assay (cGMP, HTRF), in the presence and absence of 50% human serum; type: cell-based; settings: CHO cells stably expressing human sGC alpha 1/beta 1, preincubated with 40 microM ODQ; cGMP by HTRF; Table 2 does not state whether with or without 50% human serum
# Procedure, shortened: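 First, CHO-sGC (human α1β1) cells get 1 h ODQ at 40 microM with IBMX and 0.1% BSA. Finally, cGMP is quantified by HTRF and EC50 computed.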
# [2] = Human liver microsome (HLM) metabolic stability assay; type: in vitro ADME; settings: human liver microsomes
# Procedure, shortened: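 Remaining parent measured by LC/MS/MS (ESI, MRM) at 5, 15, 30 and 60 min relative to 0 min. Incubation: 1 uM compound, HLMs, NADPH-started, 37° C., 60 min total, single replicate. Slope of ln(% remaining) gives t1/2 = 0.693/slope, then CLint, CLh and % Qh.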
# [3] = pH 2.2, aqueous buffer, Solubility (pH 2.2)
# [4] = pH 4.5, aqueous buffer, Solubility (pH 4.5)
# [5] = pH 6.8, aqueous buffer, Solubility (pH 6.8)
# Chain of human soluble guanylate cyclase alpha 1 and beta 1 subunits (sGC) (Q02108 whole entry partner): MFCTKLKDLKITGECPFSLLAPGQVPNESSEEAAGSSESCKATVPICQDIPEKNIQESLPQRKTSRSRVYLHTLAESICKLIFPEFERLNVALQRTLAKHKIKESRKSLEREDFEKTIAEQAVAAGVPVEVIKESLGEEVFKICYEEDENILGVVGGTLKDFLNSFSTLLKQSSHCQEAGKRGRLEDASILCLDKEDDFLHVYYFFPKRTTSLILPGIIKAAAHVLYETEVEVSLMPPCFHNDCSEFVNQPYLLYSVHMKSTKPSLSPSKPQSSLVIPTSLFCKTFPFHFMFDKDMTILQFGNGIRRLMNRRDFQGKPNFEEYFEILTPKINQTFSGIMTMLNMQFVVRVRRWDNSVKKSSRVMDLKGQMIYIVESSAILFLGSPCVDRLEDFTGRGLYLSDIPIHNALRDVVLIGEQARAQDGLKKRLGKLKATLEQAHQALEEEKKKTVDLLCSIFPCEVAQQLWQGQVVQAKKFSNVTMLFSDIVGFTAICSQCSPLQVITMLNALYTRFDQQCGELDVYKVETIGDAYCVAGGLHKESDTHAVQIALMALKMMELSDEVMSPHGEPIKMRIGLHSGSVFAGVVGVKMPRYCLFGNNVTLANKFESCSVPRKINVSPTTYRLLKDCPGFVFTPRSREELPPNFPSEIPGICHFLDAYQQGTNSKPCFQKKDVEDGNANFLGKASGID
# Chain of human soluble guanylate cyclase alpha 1 and beta 1 subunits (sGC) (Q02153 whole entry): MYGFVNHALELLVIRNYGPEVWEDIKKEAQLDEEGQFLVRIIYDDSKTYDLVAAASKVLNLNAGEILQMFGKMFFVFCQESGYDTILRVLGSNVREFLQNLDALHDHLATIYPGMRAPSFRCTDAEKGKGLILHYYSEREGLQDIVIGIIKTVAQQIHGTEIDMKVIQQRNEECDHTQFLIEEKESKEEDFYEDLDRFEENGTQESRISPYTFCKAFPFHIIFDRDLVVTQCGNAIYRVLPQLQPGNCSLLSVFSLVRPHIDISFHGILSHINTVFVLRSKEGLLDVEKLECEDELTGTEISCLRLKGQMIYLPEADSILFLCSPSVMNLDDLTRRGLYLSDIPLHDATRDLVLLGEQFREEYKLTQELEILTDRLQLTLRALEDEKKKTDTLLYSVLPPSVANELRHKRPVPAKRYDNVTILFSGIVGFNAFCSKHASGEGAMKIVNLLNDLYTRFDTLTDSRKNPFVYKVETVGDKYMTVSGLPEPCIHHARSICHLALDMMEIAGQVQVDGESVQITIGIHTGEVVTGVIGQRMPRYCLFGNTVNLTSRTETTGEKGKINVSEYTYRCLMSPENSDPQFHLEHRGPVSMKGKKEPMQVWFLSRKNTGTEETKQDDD
SMILES,solubility at 24 h (physchem; [3]) [µg/mL],solubility at 24 h (physchem; [4]) [µg/mL],solubility at 24 h (physchem; [5]) [µg/mL],EC50 [1] [nM],"Metabolic stability (Qh %), % hepatic blood flow [2] [%]"
CO[C@@H]1CN(c2cccc(-c3cc(C)ccc3OCc3cc(C)c4c(c3)CCN(C3CCOC3)C4)n2)CC[C@@H]1C(=O)O (stereo partly drawn) [Compound 77],110,95,64,71,<24
CCc1cc(COc2ccc(C)cc2-c2cccc(N3CC[C@H](C(=O)O)[C@H](OC)C3)n2)cc2c1CN(C1CCOCC1)CC2 [Compound 79],140,120,91,25,<24
COc1cc(COc2ccc(C)cc2-c2cccc(N3CC[C@H](C(=O)O)[C@H](OC)C3)n2)cc2c1CN(C1CCOCC1)CC2 [Compound 80],150,130,92,23,<24
CO[C@@H]1CN(c2cccc(-c3cc(C)ccc3OCc3ccc4c(c3C)CCN(C3CCOCC3)CC4)n2)CC[C@@H]1C(=O)O [Compound 81],> 160,> 160,91,30,30
O=C(O)[C@@]12CCN(c3nc(-c4ccccc4OCc4ccc5c(c4)CCN(C4CCOCC4)C5)cs3)C[C@@H]1C2 [Compound 82],100,40,22,10,<24
Cc1c(COc2ccccc2-c2csc(N3CC[C@@]4(C(=O)O)C[C@H]4C3)n2)ccc2c1CCN(C1CCOCC1)C2 [Compound 83],120,47,13,4,<24
Cc1cccc(-c2csc(N3CC[C@@]4(C(=O)O)C[C@H]4C3)n2)c1OCc1ccc2c(c1)CCN(C1CCOCC1)C2 [Compound 84],120,70,53,27,<24
Cc1cccc(-c2csc(N3CC[C@@]4(C(=O)O)C[C@H]4C3)n2)c1OCc1ccc2c(c1)CCN(C1COC1)C2 [Compound 85],120,52,55,28,29
Cc1cccc(-c2csc(N3CC[C@@]4(C(=O)O)C[C@H]4C3)n2)c1OCc1ccc2c(c1C)CCN(CC1COCCO1)C2 (stereo partly drawn) [Compound 86],120,71,57,2,41
Cc1cc(COc2c(C)cccc2-c2csc(N3CC[C@@]4(C(=O)O)C[C@H]4C3)n2)cc2c1CN(CC1COCCO1)CC2 (stereo partly drawn) [Compound 91],120,68,41,3,<24
Cc1cc(COc2c(C)cccc2-c2csc(N3CC[C@@]4(C(=O)O)C[C@H]4C3)n2)cc2c1CN(C1CCCOC1)CC2 (stereo partly drawn) [Compound 94],120,55,19,3,42
Cc1cc(COc2c(C)cccc2-c2csc(N3CC[C@@]4(C(=O)O)C[C@H]4C3)n2)cc2c1CN(C1CCOCC1)CC2 [Compound 96],120,68,52,2,33
Cc1ccc(OCc2ccc3c(c2)CCN(C2CCOCC2)C3)c(-c2csc(N3CC[C@@]4(C(=O)O)C[C@H]4C3)n2)c1 [Compound 110],110,54,0.58,17,<24
Cc1ccc(OCc2ccc3c(c2)CCN(CC2COCCO2)C3)c(-c2csc(N3CC[C@@]4(C(=O)O)C[C@H]4C3)n2)c1 (stereo partly drawn) [Compound 112],120,55,8.1,2,<24
Cc1ccc(OCc2ccc3c(c2)CCN(C2CCCOC2)C3)c(-c2csc(N3CC[C@@]4(C(=O)O)C[C@H]4C3)n2)c1 (stereo partly drawn) [Compound 113],130,36,2.7,5,<24

# The next lines start with the values.
solubility at 24 h (physchem; [3]) [µg/mL],solubility at 24 h (physchem; [4]) [µg/mL],solubility at 24 h (physchem; [5]) [µg/mL],EC50 [1] [nM],"Metabolic stability (Qh %), % hepatic blood flow [2] [%]",SMILES
120,67,28,2,55,Cc1cccc(-c2csc(N3CC[C@@]4(C(=O)O)C[C@H]4C3)n2)c1OCc1ccc2c(c1C)CCN(C1CCCOC1)C2 (stereo partly drawn) [Compound 87]
120,69,48,4,43,Cc1cccc(-c2csc(N3CC[C@@]4(C(=O)O)C[C@H]4C3)n2)c1OCc1ccc2c(c1C)CCN(C1CCOC1)C2 (stereo partly drawn) [Compound 88]
120,66,31,2,49,Cc1cc(COc2c(C)cccc2-c2csc(N3CC[C@@]4(C(=O)O)C[C@H]4C3)n2)cc2c1CN(C1CCOC1)CC2 (stereo partly drawn) [Compound 95]
120,75,31,1,48,Cc1cc(COc2c(C)cccc2-c2csc(N3CC[C@@]4(C(=O)O)C[C@H]4C3)n2)c(C)c2c1CN(CC1COCCO1)CC2 (stereo partly drawn) [Compound 98]
120,69,14,3,59,Cc1cc(COc2c(C)cccc2-c2csc(N3CC[C@@]4(C(=O)O)C[C@H]4C3)n2)c(C)c2c1CN(C1CCCOC1)CC2 (stereo partly drawn) [Compound 99]
130,68,27,3,55,Cc1cc(COc2c(C)cccc2-c2csc(N3CC[C@@]4(C(=O)O)C[C@H]4C3)n2)c(C)c2c1CN(C1CCOC1)CC2 (stereo partly drawn) [Compound 100]
120,79,38,3,61,Cc1cc(COc2c(C)cccc2-c2csc(N3CC[C@@]4(C(=O)O)C[C@H]4C3)n2)c(C)c2c1CN(C1CCOCC1)CC2 [Compound 101]
130,41,54,3,52,Cc1cc(COc2c(C)cccc2-c2csc(N3CC[C@@]4(C(=O)O)C[C@H]4C3)n2)c(C)c2c1CN(C1COC1)CC2 [Compound 102]
130,66,44,5,39,Cc1cccc(-c2csc(N3CC[C@@]4(C(=O)O)C[C@H]4C3)n2)c1OCc1ccc2c(c1C)CCN(C1CCOC1)CC2 (stereo partly drawn) [Compound 106]
